Experimental data reported in PubChem BioAssay AID248 (DTP/NCI, 2004).
Several values for one entry are separate records, joined by “and”; a condition that tells them apart may be missing. Equal values may be shown once. Inconclusive results and toxic doses are left out. No stated cut-off is given here; in the data, active means T/C of 150% or more; inactive means T/C below 125%.

System: L1210 leukemia ip in BDF1 mice, survival T/C
Assay: NCI In Vivo Anticancer Drug Screen. Data for tumor model L1210 Leukemia (intraperitoneal) in B6D2F1 (BDF1) mice
Conditions: endpoint: mean survival time, higher = longer survival
How it was run: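 Mice bearing the transplanted tumor received compound or vehicle. Survival of the treated group was divided by that of the vehicle-treated control group to give the ratio.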

[1] = dose: 100.0 mg/kg/injection, schedule: Q01DX001 (ip), vehicle: saline
[2] = dose: 100.0 mg/kg/injection, schedule: Q01DX009 (ip), vehicle: saline
[3] = dose: 100.0 mg/kg/injection, schedule: Q04DX003 (ip), vehicle: saline
[4] = dose: 200.0 mg/kg/injection, schedule: Q01DX001 (ip), vehicle: saline
[5] = dose: 200.0 mg/kg/injection, schedule: Q01DX009 (ip), vehicle: saline
[6] = dose: 200.0 mg/kg/injection, schedule: Q04DX003 (ip), vehicle: saline
[7] = dose: 100.0 mg/kg/injection, schedule: Q01DX009 (ip), vehicle: saline with Tween-80
[8] = dose: 100.0 mg/kg/injection, schedule: Q04DX003 (ip), vehicle: saline with Tween-80
[9] = dose: 200.0 mg/kg/injection, schedule: Q04DX003 (ip), vehicle: saline with Tween-80
[10] = dose: 100.0 mg/kg/injection, schedule: Q04DX003 (ip), vehicle: Klucel (hydroxypropylcellulose) (HPC)
[11] = dose: 200.0 mg/kg/injection, schedule: Q04DX003 (ip), vehicle: Klucel (hydroxypropylcellulose) (HPC)
[12] = dose: 400.0 mg/kg/injection, schedule: Q04DX003 (ip), vehicle: Klucel (hydroxypropylcellulose) (HPC)
[13] = dose: 50.0 mg/kg/injection, schedule: Q01DX009 (ip), vehicle: saline
[14] = dose: 50.0 mg/kg/injection, schedule: Q04DX003 (ip), vehicle: saline

Measured: T/C

O=C1NC(c2ccccc2)(c2ccccc2)C(=O)N1CCO
inactive: [1] 100 % of control | [2] 96 % of control | [3] 107 % of control | [4] 92 % of control | [5] 96 % of control | [6] 104 % of control | dose: 400.0 mg/kg/injection, schedule: Q01DX001 (ip), vehicle: saline 102 % of control | dose: 400.0 mg/kg/injection, schedule: Q01DX009 (ip), vehicle: saline 90 % of control | dose: 400.0 mg/kg/injection, schedule: Q04DX003 (ip), vehicle: saline 98 % of control

O=S(=O)(O)O.[NH-]CC(N)=O.[NH-]CC(N)=O.[Ni+2]
inactive: dose: 6.25 mg/kg/injection, schedule: Q01DX009 (ip), vehicle: water 109 % of control | dose: 12.5 mg/kg/injection, schedule: Q01DX009 (ip), vehicle: water 97 % of control | dose: 25.0 mg/kg/injection, schedule: Q01DX009 (ip), vehicle: water 90 % of control

S=C(c1ccccc1)N(c1ccccc1)C1CCCCC1
inactive: dose: 100.0 mg/kg/injection, schedule: Q04DX003 (ip), vehicle: gum acacia 91 % of control | dose: 200.0 mg/kg/injection, schedule: Q04DX003 (ip), vehicle: gum acacia 88 % of control | dose: 400.0 mg/kg/injection, schedule: Q04DX003 (ip), vehicle: gum acacia 88 % of control

CCN(CC)CCC(=O)Nc1cccc2c1C(=O)c1c(c(O)c3ccccc3c1O)C2=O
inactive: dose: 50.0 mg/kg/injection, schedule: Q01DX009 (ip), vehicle: saline with Tween-80 105 % of control | [7] 91 % of control | [8] 105 % of control | [9] 90 % of control

COc1ccc(P(=NS(=O)(=O)c2ccc(C)cc2)(c2ccc(OC)cc2)c2ccc(OC)cc2)cc1
inactive: [10] 91 % of control | [11] 96 % of control

Cc1cccc(C)c1OC(=O)Nc1cccc2ccccc12
inactive: dose: 12.5 mg/kg/injection, schedule: Q04DX002 (ip), vehicle: Klucel (hydroxypropylcellulose) (HPC) 105 % of control | dose: 25.0 mg/kg/injection, schedule: Q04DX002 (ip), vehicle: Klucel (hydroxypropylcellulose) (HPC) 118 % of control | dose: 50.0 mg/kg/injection, schedule: Q04DX002 (ip), vehicle: Klucel (hydroxypropylcellulose) (HPC) 112 % of control | dose: 100.0 mg/kg/injection, schedule: Q04DX002 (ip), vehicle: Klucel (hydroxypropylcellulose) (HPC) 95 % of control | dose: 200.0 mg/kg/injection, schedule: Q04DX002 (ip), vehicle: Klucel (hydroxypropylcellulose) (HPC) 97 % of control | dose: 400.0 mg/kg/injection, schedule: Q04DX002 (ip), vehicle: Klucel (hydroxypropylcellulose) (HPC) 89 % of control

Cc1c(-c2ccccc2)sc(N)c1C#N
inactive: dose: 100.0 mg/kg/injection, schedule: Q01DX001 (ip), vehicle: saline with Tween-80 94 % of control | [7] 93 % of control and 100 % of control | dose: 100.0 mg/kg/injection, schedule: Q04DX002 (ip), vehicle: saline with Tween-80 94 % of control | [8] 95 % of control | dose: 200.0 mg/kg/injection, schedule: Q01DX001 (ip), vehicle: saline with Tween-80 93 % of control | dose: 200.0 mg/kg/injection, schedule: Q01DX009 (ip), vehicle: saline with Tween-80 92 % of control | dose: 200.0 mg/kg/injection, schedule: Q04DX002 (ip), vehicle: saline with Tween-80 94 % of control and 98 % of control | [9] 100 % of control | dose: 400.0 mg/kg/injection, schedule: Q01DX001 (ip), vehicle: saline with Tween-80 93 % of control | dose: 400.0 mg/kg/injection, schedule: Q01DX009 (ip), vehicle: saline with Tween-80 100 % of control and 87 % of control | dose: 400.0 mg/kg/injection, schedule: Q04DX002 (ip), vehicle: saline with Tween-80 96 % of control | dose: 400.0 mg/kg/injection, schedule: Q04DX003 (ip), vehicle: saline with Tween-80 100 % of control

O=C1c2ccc([N+](=O)[O-])cc2-n2cccc21
inactive: [10] 95 % of control | [11] 104 % of control | [12] 98 % of control

CCC(C)C(C(=O)OCCC[N+]1(C)CCCCC1)c1ccccc1 (stereo not given)
inactive: dose: 12.5 mg/kg/injection, schedule: Q01DX009 (ip), vehicle: saline 96 % of control | dose: 12.5 mg/kg/injection, schedule: Q04DX003 (ip), vehicle: saline 96 % of control | dose: 25.0 mg/kg/injection, schedule: Q01DX009 (ip), vehicle: saline 100 % of control | dose: 25.0 mg/kg/injection, schedule: Q04DX003 (ip), vehicle: saline 96 % of control | [13] 94 % of control | [14] 94 % of control

CN1CC(=O)NC1=O
inactive: dose: 250.0 mg/kg/injection, schedule: Q01DX Z (ip), vehicle: saline 94 % of control | dose: 500.0 mg/kg/injection, schedule: Q01DX Z (ip), vehicle: saline 97 % of control | dose: 1000.0 mg/kg/injection, schedule: Q01DX Z (ip), vehicle: saline 96 % of control

C/C=C1\CN2CCC34CC5C6CC7c8c(c9ccccc9n8C)CC(C6COC5(C)OC35C2CC1C(C(=O)OC)N5c1ccccc14)N7C (stereo not given)
inactive: [8] 87 % of control

CC(C)([CH2][Sn]([CH2]C(C)(C)c1ccccc1)([CH2]C(C)(C)c1ccccc1)[CH2]C(C)(C)c1ccccc1)c1ccccc1
inactive: dose: 5.0 mg/kg/injection, schedule: Q01DX009 (sc), vehicle: olive oil, sesame oil, peanut oil 102 % of control | dose: 5.0 mg/kg/injection, schedule: Q04DX003 (sc), vehicle: olive oil, sesame oil, peanut oil 92 % of control | dose: 10.0 mg/kg/injection, schedule: Q01DX009 (sc), vehicle: olive oil, sesame oil, peanut oil 107 % of control | dose: 10.0 mg/kg/injection, schedule: Q04DX003 (sc), vehicle: olive oil, sesame oil, peanut oil 92 % of control | dose: 20.0 mg/kg/injection, schedule: Q01DX009 (sc), vehicle: olive oil, sesame oil, peanut oil 102 % of control | dose: 20.0 mg/kg/injection, schedule: Q04DX003 (sc), vehicle: olive oil, sesame oil, peanut oil 92 % of control

CCC(O)C(c1ccccc1)(c1ccccc1)C(C)CN(C)C (stereo not given)
inactive: [1] 100 % of control | [4] 97 % of control

COc1ccc2c(c1)CCC1C2=CC(=O)CC1c1ccco1 (stereo not given)
inactive: [10] 102 % of control | [11] 93 % of control | [12] 88 % of control

CC(=O)Nc1cccnc1
inactive: [13] 101 % of control | [14] 100 % of control | [2] 101 % of control | [3] 94 % of control | [5] 98 % of control | [6] 97 % of control

CCCCS(=O)c1nc2ccccc2s1 (stereo not given)
inactive: dose: 100.0 mg/kg/injection, schedule: Q04DX002 (ip), vehicle: other 88 % of control | dose: 200.0 mg/kg/injection, schedule: Q04DX002 (ip), vehicle: other 91 % of control

C/C(=C1\SC(=S)N(C2OC(CO)C(O)C(O)C2O)C1=O)c1ccco1 (stereo not given)
inactive: dose: 12.5 mg/kg/injection, schedule: Q01DX005 (ip), vehicle: water 109 % of control | dose: 25.0 mg/kg/injection, schedule: Q01DX005 (ip), vehicle: water 95 % of control | dose: 50.0 mg/kg/injection, schedule: Q01DX005 (ip), vehicle: water 111 % of control | dose: 100.0 mg/kg/injection, schedule: Q01DX005 (ip), vehicle: water 98 % of control | dose: 200.0 mg/kg/injection, schedule: Q01DX005 (ip), vehicle: water 93 % of control

C(=C\c1ccccn1)/c1ccccc1
inactive: [10] 100 % of control | [11] 94 % of control | [12] 103 % of control

c1ccc(-c2c3ccccc3c(-c3ccccc3)c3c2ccc2ccccc23)cc1
inactive: dose: 50.0 mg/kg/injection, schedule: Q01DX009 (ip), vehicle: Klucel (hydroxypropylcellulose) (HPC) 91 % of control | dose: 200.0 mg/kg/injection, schedule: Q01DX009 (ip), vehicle: Klucel (hydroxypropylcellulose) (HPC) 91 % of control

C/C=C/SC(=Nc1ccccc1)Nc1ccccc1
inactive: dose: 100.0 mg/kg/injection, schedule: Q01DX001 (ip), vehicle: Klucel (hydroxypropylcellulose) (HPC) 96 % of control | dose: 200.0 mg/kg/injection, schedule: Q01DX001 (ip), vehicle: Klucel (hydroxypropylcellulose) (HPC) 94 % of control | dose: 400.0 mg/kg/injection, schedule: Q01DX001 (ip), vehicle: Klucel (hydroxypropylcellulose) (HPC) 98 % of control

c1ccc(P(CC[As](c2ccccc2)c2ccccc2)CC[As](c2ccccc2)c2ccccc2)cc1
inactive: [10] 93 % of control | [11] 93 % of control | [12] 96 % of control

CN(C)C1CCc2c(ccc3ccccc23)C1=O (stereo not given)
inactive: dose: 25.0 mg/kg/injection, schedule: Q01DX001 (ip), vehicle: saline 99 % of control | dose: 50.0 mg/kg/injection, schedule: Q01DX001 (ip), vehicle: saline 99 % of control | [1] 100 % of control
